How the values were obtained:
[1] = test system: Human coronary artery smooth muscle cells (CASMCs); test: Smooth muscle cell proliferation protocol; type: cell-based; details: 50 uM, 72 hours, read-out: % Inhibition of SMC Proliferation
Method: Compounds were dissolved in DMSO, aliquoted, and stored at −20° C. Human coronary artery smooth muscle cells (CASMCs) were plated in 96-well plates and were grown in SmBM-2 media. After 1-2 hours, media was aspirated and replaced with serum-free ME/F12 media, except the controls. Cells were incubated for a further 48 hours. Compounds were diluted in DME/F12 containing 10% FBS. Media was aspirated from the plates and compounds in DME/F12 containing 10% FBS. Six wells were used per condition and duplicate plates were used. Cells were incubated for a further 72 hours. Media was aspirated from one set of plates; those cells were refed (˜100 μL/well) with 20% CellTiter 96 Aqueous One Cell Proliferation Solution (Promega), 80% EGM-2 medium. Media optical density (at 490 nm) was determined after 3-4 hours. In the second set of plates, serum-free DME/F12 media (20 μL) was added to each well. Part of the supernatant (50 μL) was removed and placed in an ELISA plate and was stored temporarily at 4° C. The remaining media and cells in the second set of plates were freeze-thawed for four cycles. The lysates and supernatants were mixed and centrifuged. Part of the supernatant (50 μL) was removed and placed in an ELISA plate. The Promega Cytotox assay was performed on the ELISA plates. The ratio of supernatant OD to supernatant+cell lysate OD was determined.
In Table 2, a positive result (+) was defined as at least 40% inhibition of the proliferation of SMC, as determined by the assay.

MCP-1 = MCP-1 ELISA on culture media of TNF-α stimulated HUVECs; type: cell-based; details: Homo sapiens, HUVEC, 50 uM, approx. 16 hours
Method: (§1) Compounds were dissolved in DMSO, aliquoted, and stored at −20° C. Cultured human vascular endothelial cells (HUVECs) were seeded in 96-well plates in complete EGM-2 media (˜100 μL/well); cells were plated at ˜2-3×10^5/mL, and were from passage 8 to 12. Cells were incubated overnight. On the following day cells are stimulated with TNF-α (˜1 ng/mL) in the presence or absence of compounds dissolved in DMSO. Triplicate wells were used for each test. To establish a dose curve and an IC50, multiple concentrations in 2- to 5-fold increments were used. Cells were exposed to TNF-α and compounds for approximately 16 hours. The next day, cells were visually examined via light microscopy to score for visual signs of toxicity. Cell culture media was analyzed using an MCP-1 ELISA. Cells were refed (−100 μL/well) with 20% CellTiter 96. Aqueous One Cell Proliferation Solution (Promega), 80% EGM-2 medium. Media optical density (at 490 nm) was determined after 1 hour. Plates were aspirated and cell lysates were prepared and these lysates were tested using a VCAM-1 ELISA.
(§2) In Table 2, a positive result (+) was defined as at least 50% inhibition of the protein levels MCP-1 or VCAM-1, as determined by the ELISA.

VCAM-1 = VCAM-1 ELISA on lysates of TNF-α stimulated HUVECs; type: cell-based; details: Homo sapiens, HUVEC, 50 uM, approx. 16 hours
Method: as §1, §2

[2] = following oral administration (Gugler et al. 1975); cited from earlier work

| melting point [°C] | SMILES | inhibition at 50 µM [1] [%] | inhibition at 50 µM (MCP-1) [%] | inhibition at 50 µM (VCAM-1) [%] | intestinal absorption [2] |
| --- | --- | --- | --- | --- | --- |
| 103 to 105 | O=c1cc(-c2ccccc2)oc2ncccc12 [EXAMPLE 22, 2-Phenyl-4H-pyrano[2,3-b]pyridin-4-one] | ≥ 40 | < 50 | < 50 | – |
| 218 to 219 | O=c1cc(-c2ccc(CO)cc2)oc2ncccc12 [EXAMPLE 23, 2-(4-(hydroxymethyl)phenyl)-4H-pyrano[2,3-b]pyridin-4-one] | ≥ 40 | < 50 | < 50 | – |
| 122.8 to 124 | O=c1cc(-c2cccnc2)oc2ccccc12 [EXAMPLE 25, 2-(pyridin-3-yl)-4H-chromen-4-one] | ≥ 40 | < 50 | < 50 | – |
| 267 to 272 | O=c1cc(-c2ccc(O)c(Br)c2)oc2ncccc12 [EXAMPLE 32, 2-(3-Bromo-4-hydroxyphenyl)-4H-pyrano[2,3-b]pyridin-4-one] | ≥ 40 | < 50 | ≥ 50 | – |
| 347.6 to 348.2 | O=c1[nH]c2ccc(-c3cc(=O)c4ccccc4o3)cc2o1 [EXAMPLE 36, 6-(4-oxo-4H-chromen-2-yl)benzo[d]oxazol-2(3H)-one] | ≥ 40 | < 50 | ≥ 50 | – |
| 272.3 to 274.8 | O=c1cc(-c2ccc3nccnc3c2)oc2ncccc12 [EXAMPLE 44, 2-(quinoxalin-6-yl)-4H-pyrano[2,3-b]pyridin-4-one] | ≥ 40 | < 50 | ≥ 50 | – |

More lines, now with the values behind:

| SMILES | melting point [°C] | inhibition at 50 µM [1] [%] | inhibition at 50 µM (MCP-1) [%] | inhibition at 50 µM (VCAM-1) [%] | intestinal absorption [2] |
| --- | --- | --- | --- | --- | --- |
| Cc1cc(-c2cc(=O)c3cccnc3o2)cc(C)c1O [EXAMPLE 24, 2-(4-hydroxy-3,5-dimethylphenyl)-4H-pyrano[2,3-b]pyridin-4-one] | 295 to 297 | ≥ 40 | ≥ 50 | ≥ 50 | – |
| O=c1cc(-c2ccc(O)c(-c3cccs3)c2)oc2ncccc12 [EXAMPLE 28, 2-(4-hydroxy-3-(thiophen-2-yl)phenyl)-4H-pyrano[2,3-b]pyridin-one] | 273.5 to 275 | < 40 | < 50 | ≥ 50 | – |
| Cc1cc(-c2cc(=O)c3cccnc3o2)cc(C)c1OCC(=O)O [EXAMPLE 29, 2-(2,6-dimethyl-4-(4-oxo-4H-pyrano[2,3-b]pyridin-2-yl)phenoxy)acetic Acid] | 280 | ≥ 40 | < 50 | < 50 | – |
| COc1cc(OC)c2c(=O)[nH]c(-c3cc(C)c(OCC(C)(C)O)c(C)c3)cc2c1 [EXAMPLE 42, 3-(4-(2-hydroxy-2-methylpropoxy)-3,5-dimethylphenyl)-6,8-dimethoxyisoquinolin-1(2H)-one] | 252 to 254 | ≥ 40 | < 50 | ≥ 50 | – |
| COc1cc(OC)c2c(N)nc(-c3cc(C)c(O)c(C)c3)cc2n1 [EXAMPLE 45, 4-(5-amino-2,4-dimethoxy-1,6-naphthyridin-7-yl)-2,6-dimethylphenol] | 163.2 to 165.5 | ≥ 40 | < 50 | ≥ 50 | – |
| O=c1[nH]c(-c2ccc(F)cc2)nc2ccc(CN3CCOCC3)cc12 [EXAMPLE 46, 2-(4-fluorophenyl)-6-(morpholinomethyl)quinazolin-4(3H)-one] | 321.8 to 323.3 | ≥ 40 | < 50 | < 50 | – |
| O=c1cc(-c2ccc3[nH]ncc3c2)oc2ncc(CN3CCOCC3)cc12 [EXAMPLE 47, 2-(1H-indazol-5-yl)-6-(morpholinomethyl)-4H-pyrano[2,3-b]pyridin-4-one] | 293.1 to 293.2 | ≥ 40 | < 50 | < 50 | – |
| O=c1c(O)c(-c2ccc(O)c(O)c2)oc2cc(O)cc(O)c12 [quercetin] | – | – | – | – | less than 1% |

Reference: patent publication US8410109B2, “Pharmaceutical compositions for the prevention and treatment of complex diseases and their delivery by insertable medical devices” (Resverlogix Corp., priority 2005, dated 2013)
